According to PubChem BioAssay AID330 (DTP/NCI, 2004):
Several values for one entry are separate records, joined by “and”; a condition that tells them apart may be missing. Identical values can stand only once. Toxic doses and inconclusive results are not listed. The calls were made as follows: active = survival T/C of 150% or more; inactive = T/C below 125% in these data.

Tested on: P388 leukemia ip, CD2F1 mice, survival T/C
Test: NCI In Vivo Anticancer Drug Screen. Data for tumor model P388 Leukemia (intraperitoneal) in CD2F1 (CDF1) mice
Conditions: endpoint: median survival time, higher = longer survival
How it was run: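 Mice carrying the transplanted tumor received test compound or vehicle. Survival was recorded in each group, and the value is the treated-group measurement divided by that of the vehicle-treated control group.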

[1] = dose: 6.25 mg/kg/injection, schedule: Q01DX009 (ip), vehicle: saline with Tween-80
[2] = dose: 12.5 mg/kg/injection, schedule: Q01DX009 (ip), vehicle: saline with Tween-80
[3] = dose: 25.0 mg/kg/injection, schedule: Q01DX009 (ip), vehicle: saline with Tween-80
[4] = dose: 50.0 mg/kg/injection, schedule: Q01DX009 (ip), vehicle: saline with Tween-80
[5] = dose: 25.0 mg/kg/injection, schedule: Q01DX005 (ip), vehicle: Klucel (hydroxypropylcellulose) (HPC)
[6] = dose: 50.0 mg/kg/injection, schedule: Q01DX005 (ip), vehicle: Klucel (hydroxypropylcellulose) (HPC)
[7] = dose: 100.0 mg/kg/injection, schedule: Q01DX005 (ip), vehicle: Klucel (hydroxypropylcellulose) (HPC)
[8] = dose: 200.0 mg/kg/injection, schedule: Q01DX005 (ip), vehicle: Klucel (hydroxypropylcellulose) (HPC)
[9] = dose: 50.0 mg/kg/injection, schedule: Q01DX009 (ip), vehicle: Klucel (hydroxypropylcellulose) (HPC)
[10] = dose: 100.0 mg/kg/injection, schedule: Q01DX009 (ip), vehicle: Klucel (hydroxypropylcellulose) (HPC)
[11] = dose: 200.0 mg/kg/injection, schedule: Q01DX009 (ip), vehicle: Klucel (hydroxypropylcellulose) (HPC)
[12] = dose: 100.0 mg/kg/injection, schedule: Q01DX009 (ip), vehicle: saline with Tween-80
[13] = dose: 200.0 mg/kg/injection, schedule: Q01DX009 (ip), vehicle: saline with Tween-80

Measured: T/C

O=c1oc(-c2ccc(Cl)cc2)nc2cc(Cl)ccc12
inactive: [1] 96 % of control | [2] 100 % of control | [3] 100 % of control | [4] 99 % of control

Oc1c(Cl)cc(Cl)cc1C1Nc2ccccc2-n2cccc21 (stereo not drawn)
inactive: [1] 91 % of control | [2] 96 % of control | [3] 91 % of control

CCOc1ccnc2c(C)c3c([nH]c4ccccc43)c(C)c12
inactive: dose: 100.0 mg/kg/injection, schedule: Q04DX002 (ip), vehicle: saline with Tween-80 98 % of control | dose: 200.0 mg/kg/injection, schedule: Q04DX002 (ip), vehicle: saline with Tween-80 94 % of control | dose: 400.0 mg/kg/injection, schedule: Q04DX002 (ip), vehicle: saline with Tween-80 96 % of control

O=[N+]([O-])C1CCC(O)C([N+](=O)[O-])C1 (stereo not drawn) (tested in a mixture with another compound)
inactive: [1] 100 % of control | [2] 96 % of control | [3] 99 % of control

c1ccc2c(c1)Nc1ccccc1O2
inactive: [5] 98 % of control | [6] 91 % of control | [7] 100 % of control | [8] 99 % of control

COc1ccccc1C1CC(c2ccccc2)=Nc2ccccc2S1 (stereo not drawn)
inactive: [9] 96 % of control | [10] 100 % of control | [11] 101 % of control

[Cl][Fe]([Cl])([Cl])[Cl].c1ccc(C[n+]2ccccc2)cc1
inactive: dose: 6.25 mg/kg/injection, schedule: Q01DX009 (ip), vehicle: saline 108 % of control | dose: 12.5 mg/kg/injection, schedule: Q01DX009 (ip), vehicle: saline 104 % of control | dose: 25.0 mg/kg/injection, schedule: Q01DX009 (ip), vehicle: saline 117 % of control

CN(C)CCCOc1nc2c(c(=O)n(C)c(=O)n2C)n1C (tested in a mixture with another compound)
inactive: dose: 6.25 mg/kg/injection, schedule: Q01DX005 (ip), vehicle: Klucel (hydroxypropylcellulose) (HPC) 100 % of control | dose: 12.5 mg/kg/injection, schedule: Q01DX005 (ip), vehicle: Klucel (hydroxypropylcellulose) (HPC) 106 % of control | [5] 110 % of control

COc1cc(OC)c(C(=O)O)cc1C(C)=O
inactive: [4] 105 % of control | [12] 115 % of control | [13] 96 % of control

CC(C)C(C(F)C(=O)OCc1ccccc1)N(Cc1ccccc1)Cc1ccccc1 (stereo not drawn)
inactive: [6] 98 % of control | [7] 91 % of control | [8] 89 % of control

C/C=C1\C[N+]2(C)CCC34c5ccccc5NC32C(O)CC1C4(CO)C(=O)OC (stereo not drawn)
inactive: dose: 4.0 mg/kg/injection, schedule: Q01DX009 (ip), vehicle: saline with Tween-80 110 % of control | dose: 4.0 mg/kg/injection, schedule: Q01DX009 (ip), vehicle: saline 113 % of control | dose: 8.0 mg/kg/injection, schedule: Q01DX009 (ip), vehicle: saline with Tween-80 110 % of control | dose: 8.0 mg/kg/injection, schedule: Q01DX009 (ip), vehicle: saline 97 % of control | dose: 16.0 mg/kg/injection, schedule: Q01DX009 (ip), vehicle: saline with Tween-80 103 % of control | dose: 16.0 mg/kg/injection, schedule: Q01DX009 (ip), vehicle: saline 105 % of control | dose: 32.0 mg/kg/injection, schedule: Q01DX009 (ip), vehicle: saline with Tween-80 110 % of control | dose: 32.0 mg/kg/injection, schedule: Q01DX009 (ip), vehicle: saline 98 % of control

COc1ccc2nc3cc(Cl)ccc3c(NN3CCN(CCO)CC3)c2c1
inactive: dose: 0.19 mg/kg/injection, schedule: Q01DX009 (ip), vehicle: DMSO 86 % of control | dose: 0.38 mg/kg/injection, schedule: Q01DX009 (ip), vehicle: DMSO 98 % of control and 89 % of control | dose: 0.75 mg/kg/injection, schedule: Q01DX009 (ip), vehicle: DMSO 98 % of control | dose: 1.5 mg/kg/injection, schedule: Q01DX009 (ip), vehicle: DMSO 107 % of control and 95 % of control | dose: 23.0 micrograms/kg/injection, schedule: Q01DX009 (ip), vehicle: DMSO 87 % of control | dose: 47.0 micrograms/kg/injection, schedule: Q01DX009 (ip), vehicle: DMSO 91 % of control | dose: 94.0 micrograms/kg/injection, schedule: Q01DX009 (ip), vehicle: DMSO 89 % of control

CSC(=S)c1ccc(O)c2ccccc12
inactive: [4] 114 % of control | [12] 114 % of control | [13] 105 % of control

CCNCCn1cccc1
inactive: dose: 50.0 mg/kg/injection, schedule: Q04DX003 (ip), vehicle: saline 91 % of control | dose: 100.0 mg/kg/injection, schedule: Q04DX003 (ip), vehicle: saline 95 % of control | dose: 200.0 mg/kg/injection, schedule: Q04DX003 (ip), vehicle: saline 95 % of control

COc1cccc(/C=C2\CCc3ccccc3C2=O)c1
inactive: [9] 100 % of control | [10] 99 % of control | [11] 106 % of control

O=C1NC(=S)S/C1=C\c1ccncc1
inactive: [9] 100 % of control and 110 % of control and 116 % of control | [10] 106 % of control (2×) and 114 % of control | [11] 98 % of control and 121 % of control and 91 % of control | dose: 400.0 mg/kg/injection, schedule: Q01DX009 (ip), vehicle: Klucel (hydroxypropylcellulose) (HPC) 106 % of control

NC(=O)/C(N=Nc1ccccc1I)=N\Nc1ccccc1I
inactive: [6] 97 % of control | [7] 98 % of control | [8] 97 % of control

NC(=S)N/N=C/c1ccc(OC(F)(F)F)cn1
inactive: dose: 1.56 mg/kg/injection, schedule: Q01DX009 (ip), vehicle: saline with Tween-80 101 % of control | dose: 3.13 mg/kg/injection, schedule: Q01DX009 (ip), vehicle: saline with Tween-80 101 % of control and 107 % of control | [1] 100 % of control and 95 % of control | [2] 99 % of control and 101 % of control | [3] 101 % of control | [4] 114 % of control

COc1cc(NCC(C)(O)CN2CCCC(C)C2C)c2ncccc2c1 (stereo not drawn)
inactive: dose: 12.5 mg/kg/injection, schedule: Q01DX005 (ip), vehicle: saline 97 % of control | dose: 25.0 mg/kg/injection, schedule: Q01DX005 (ip), vehicle: saline 101 % of control | dose: 50.0 mg/kg/injection, schedule: Q01DX005 (ip), vehicle: saline 112 % of control

COc1ccc2c(=O)c(-c3ccc(OC)c(OC)c3OC)coc2c1
inactive: dose: 100.0 mg/kg/injection, schedule: Q04DX003 (ip), vehicle: Klucel (hydroxypropylcellulose) (HPC) 99 % of control | dose: 200.0 mg/kg/injection, schedule: Q04DX003 (ip), vehicle: Klucel (hydroxypropylcellulose) (HPC) 100 % of control | dose: 400.0 mg/kg/injection, schedule: Q04DX003 (ip), vehicle: Klucel (hydroxypropylcellulose) (HPC) 99 % of control

NC(N)=NC(N)=Nc1ccc2c(Cl)c(Cl)ccc2c1
inactive: dose: 6.0 mg/kg/injection, schedule: Q01DX005 (ip), vehicle: saline with Tween-80 96 % of control | dose: 12.0 mg/kg/injection, schedule: Q01DX005 (ip), vehicle: saline with Tween-80 111 % of control | dose: 22.0 mg/kg/injection, schedule: Q04DX003 (ip), vehicle: saline with Tween-80 104 % of control | dose: 25.0 mg/kg/injection, schedule: Q01DX005 (ip), vehicle: saline with Tween-80 104 % of control | dose: 25.0 mg/kg/injection, schedule: Q04DX003 (ip), vehicle: saline with Tween-80 120 % of control | dose: 33.0 mg/kg/injection, schedule: Q04DX003 (ip), vehicle: saline with Tween-80 100 % of control | dose: 50.0 mg/kg/injection, schedule: Q01DX005 (ip), vehicle: saline with Tween-80 93 % of control | dose: 50.0 mg/kg/injection, schedule: Q04DX003 (ip), vehicle: saline with Tween-80 118 % of control
